Data from patent US6683101B2, “Bicyclic cyclohexylamines and their use as NMDA receptor antagonists” (Warner-Lambert Company, priority 2000, dated 2004).
Structures can show the parent of a compound that is named as a salt.

Molecular target: NR2A/NR2B (Rattus norvegicus, UniProt Q00960)
Sequence (Q00960 27-1482, other chains not shown): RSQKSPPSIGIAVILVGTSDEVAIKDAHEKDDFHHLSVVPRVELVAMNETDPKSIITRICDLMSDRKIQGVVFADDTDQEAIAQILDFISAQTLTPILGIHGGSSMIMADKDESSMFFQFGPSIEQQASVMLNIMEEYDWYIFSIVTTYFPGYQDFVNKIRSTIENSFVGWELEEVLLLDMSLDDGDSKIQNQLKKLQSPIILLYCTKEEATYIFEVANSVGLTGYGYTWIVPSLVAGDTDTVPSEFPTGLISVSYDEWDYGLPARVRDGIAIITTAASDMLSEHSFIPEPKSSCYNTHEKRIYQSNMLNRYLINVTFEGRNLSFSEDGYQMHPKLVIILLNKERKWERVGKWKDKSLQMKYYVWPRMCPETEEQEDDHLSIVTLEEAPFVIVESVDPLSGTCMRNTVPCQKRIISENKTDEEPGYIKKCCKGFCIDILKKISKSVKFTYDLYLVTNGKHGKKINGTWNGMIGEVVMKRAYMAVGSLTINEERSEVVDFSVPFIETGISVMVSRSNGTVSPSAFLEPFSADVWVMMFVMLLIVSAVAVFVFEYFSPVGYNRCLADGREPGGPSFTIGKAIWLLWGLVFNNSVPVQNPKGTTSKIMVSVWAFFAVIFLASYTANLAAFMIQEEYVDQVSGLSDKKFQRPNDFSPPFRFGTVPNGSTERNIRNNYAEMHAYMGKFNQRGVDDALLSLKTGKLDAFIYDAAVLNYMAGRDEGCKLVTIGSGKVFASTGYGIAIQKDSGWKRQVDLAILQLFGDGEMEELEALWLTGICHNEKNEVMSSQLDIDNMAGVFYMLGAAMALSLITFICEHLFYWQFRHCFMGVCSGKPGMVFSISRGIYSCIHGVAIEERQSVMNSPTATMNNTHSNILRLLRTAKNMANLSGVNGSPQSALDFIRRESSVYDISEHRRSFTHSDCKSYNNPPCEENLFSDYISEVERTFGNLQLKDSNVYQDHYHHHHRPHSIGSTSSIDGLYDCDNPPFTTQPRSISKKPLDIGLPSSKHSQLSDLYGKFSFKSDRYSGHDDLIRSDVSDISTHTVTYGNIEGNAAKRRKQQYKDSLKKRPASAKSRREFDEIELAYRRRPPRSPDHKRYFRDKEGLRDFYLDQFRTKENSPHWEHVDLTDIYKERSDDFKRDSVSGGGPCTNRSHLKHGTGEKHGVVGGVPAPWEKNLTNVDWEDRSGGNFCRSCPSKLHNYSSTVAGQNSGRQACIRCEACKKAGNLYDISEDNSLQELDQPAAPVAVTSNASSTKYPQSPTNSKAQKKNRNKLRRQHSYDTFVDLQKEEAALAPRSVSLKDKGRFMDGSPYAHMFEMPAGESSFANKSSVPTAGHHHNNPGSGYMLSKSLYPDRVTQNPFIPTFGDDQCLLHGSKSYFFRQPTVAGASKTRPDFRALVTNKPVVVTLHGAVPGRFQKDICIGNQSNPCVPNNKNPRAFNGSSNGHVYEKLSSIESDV
Assay: Electrophysiological assay at NMDA receptor subunits expressed in Xenopus oocytes (two-electrode voltage clamp)
Assay type: cell-based
Conditions: cloned rat NMDA receptor subunits in Xenopus oocytes; currents activated by glutamate (100 μM) and glycine (1-100 μM); read-out: NR2A/NR2B Oocyte IC50
From the text: Electrophysiological Assays at NMDA Receptor Subunits
Preparation of RNA. cDNA clones encoding the NR1A, NR2A, NR2B, and NR2C rat NMDA receptor subtypes were used (see, Moriyoshi et al. Nature (Lond), 1991;354:31-37; Kutsuwada et al. Nature (Lond), 1992;358:36-41; Monyer et al. Science (Washington, D.C.), 1992;256:1217-1221; Ikeda et al. FEBS Lett., 1992;313:34-38; Ishii et al. J. Biol. Chem., 1993;268:2836-2843 for details of these clones or their mouse homologs). The clones were transformed into appropriate host bacteria, and plasmid preparations were made with conventional DNA purification techniques. A sample of each clone was linearized by restriction enzyme digestion of […] and was synthesized with T3 RNA polymerase. The cRNA was diluted to 400 ng/μL and stored in 1 μL aliquots at −80° C. until injection.
The Xenopus oocyte expression system. Mature female Xenopus laevis were anaesthetized (20-40 minutes) using 0.15% 3-aminobenzoic acid ethyl ester (MS-222), and 2-4 ovarian lobes were surgically removed. Oocytes at developmental stages IV-VI (Dumont J. N. J. Morphol., 1972;136:153-180) were dissected from the ovary still surrounded by enveloping ovarian tissues. Follicle-enclosed oocytes were micro-injected with 1:1 mixtures of NR1A:NR2A, 2B, or 2C; injecting 1 to 10 ng of RNA encoding each receptor subunit. NR1A encoding RNA was injected alone at ˜20 ng. Oocytes were stored in Barth's medium containing (in mM): NaCl, 88; KCl, 1; CaCl2, 0.41; Ca (NO3)2, 0.33; MgSO4, 0.82; NaHCO3, 2.4; HEPES 5, pH 7.4, with 0.11 mg/ml gentamicin sulphate. While oocytes were still surrounded by enveloping ovarian tissues, the Barth's medium was supplemented with 0.1% bovine serum. […]
Electrical recordings were made using a conventional two-electrode voltage clamp (Dagan TEV-200) over periods ranging between 3 to 21 days following injection. […] Using oocytes expressing different subunit combinations of NMDA receptor, NMDA currents were activated by co-application of glutamate (100 μM and glycine (1-100 μM). Inhibitory potency of the novel antagonists was assessed on responses elicited by fixed concentrations of glutamate and glycine, by measuring reductions in current induced by progressively increasing concentrations of antagonist. […]
In which Icontrol is the current evoked by agonists alone, pIC50=−log IC50, IC50 is the concentration of antagonist that produced half maximal inhibition, and n is the slope factor (De Lean et al. Am. J. Physiol., 1978;235:E97-102). For incomplete curves, analysis by fitting was unreliable, and IC50 values were calculated by simple regression over linear portions of the curves (Origin: Microcal Software).
In the case of `O=c1[nH]c2ccc(CCCN[C@H]3CC[C@H](c4ccc(F)cc4)CC3)cc2o1` [Example 2, 6-{3-[trans-4-(4-Fluorophenyl)cyclohexylamino]propyl}-3H-benzoxazol-2-one], the IC50 is reported as 0.12 µM.
Work on `CN(CCN[C@H]1CC[C@H](c2ccccc2)CC1)c1ccc2[nH]c(=O)oc2c1` [Example 3, 6-{Methyl[2-(trans-4-phenylcyclohexylamino)ethyl]amino}-3H-benzoxazol-2-one] yielded an IC50 of 1 µM.
For `O=c1[nH]c2ccc(OCCN[C@H]3CC[C@@H](c4ccccc4)CC3)cc2[nH]1` [Example 8a, 5-[2-(cis-4-Phenylcyclohexylamino)ethoxy]-1,3-dihydrobenzimidazol-2-one], the IC50 was 0.28 µM.
`O=c1[nH]c2ccc(OCCN[C@H]3CC[C@H](c4ccccc4)CC3)cc2[nH]1` [Example 8b, 5-[2-(trans-4-Phenylcyclohexylamino)ethoxy]-1,3-dihydrobenzimidazol-2-one] gave an IC50 of 0.12 µM.

Molecular target: T1, NMDA receptor ([3H]ifenprodil binding site) (Rattus norvegicus, UniProt P35439+Q00960)
T1 construct: tissue Zivic-Miller Laboratories, Inc; host or cells: adult rat forebrain, washed buffy coat membrane fraction
T1 sequence (Q00960 27-1482, other chains not shown): as above
Assay: [3H]Ifenprodil binding assay, rat forebrain membranes
Conditions: adult rat forebrain membranes, 4 nM [3H]-ifenprodil, 2 hours at room temperature, pH 7.4
Experimental: [^3H]Ifenprodil Binding Assay Protocol:
All buffers and reagents used in assay incubations or to dissolve drugs were prepared using water purified through a Milli-Q reverse osmosis system (Millipore Corp, Bedford, Mass.) and treated with UV emissions. Prior to use in the assays, buffers were further filtered through a sterile Corning filtration unit (Corning Glass Works, Corning, N.Y.) containing a 0.2 micron filter. Buffer used to rinse the membranes on the assay filters was prepared with purified water, but was not refiltered and was stored no longer than 5 days. Stock solutions of the drugs (usually 10 mM) were dissolved in 20 mM HEPES-KOH buffer pH 7.4 (assay buffer) with the addition of 1 to 5 μL of glacial AcOH, if needed, to keep them in solution. For eliprodil, the stock solution was buffer with the addition of 10% DMSO. All subsequent dilutions from stock were made in buffer.
An extensively washed buffy coat membrane fraction was prepared from frozen adult rat forebrains (Zivic-Miller Laboratories, Inc, Zelienople, Pa.) as described previously (Coughenour L. L., Cordon J. J. J. Pharmacol Exp. Ther., 1997;280:584-592) and stored at −80° C. On the day of the assay, pellets were resuspended in 35 mL of assay buffer at pH 7.4 using a Polytron setting 6. After incubation at 37° C. for 30 minutes in a shaking water bath, the homogenate was centrifuged 40,000×g for 10 minutes at 4° C. The pellets were resuspended in fresh buffer and centrifuged 3 more times before final suspension for use in the assay.
[^3H]Ifenprodil Binding. Triplicate incubations were carried out in a volume of 0.5 mL in 1.3 mL polypropylene tubes (Marsh Biomedical Products Inc, Rochester, N.Y.) for 2 hours at room temperature. Incubations contained test agents, membranes (100-200 μg protein), and 4 nM [^3H]-ifenprodil in 20 mM HEPES-KOH buffer, pH 7.4 (assay buffer). Assays were started by addition of the membranes. Bound radioligand was separated by filtration under reduced pressure Using a Tomtec Mach II, 96-well cell harvester (Tomtec Inc, Orange, Colo.). Filtration was through Whatman GF/B glass fiber filters (Whatman Ltd, Maidstone, England), which had been soaked for at least 15 minutes in 0.3% polyethylenimine and allowed to air dry. The filters were rinsed with 3 mL of ice cold assay buffer within 6 seconds. Air was allowed to pass through the filters for an additional 10 seconds to remove residual moisture. The filter mat was supported on a cold (−20° C.) teflon support, and filters from individual wells were separated and placed in Mini Poly-Q vials (Beckman Instrrnents Inc, Fullerton, Calif.) and filled with 4 mL of scintillation cocktail (Beckman Ready Protein^+). Radioactivity retained on the filter was determined by liquid scintillation spectrophotometry. Nonspecific binding was defined as the binding in the presence of 1 mM ifenprodil. Specific binding was 90%.
Data analysis. Binding curves were statistically analyzed for a best one or two site competition fit using GraphPad Prism software (GraphPad Software Inc, San Diego, Calif.). The normalized data was fit by nonweighted nonlinear regression to either [formula]
Control data was entered as 100%, and no parameters were constrained. Inhibition curves were compared by ANOVA with post test comparisons of the logIC50 using Dunnett's multiple comparisons post test or Student's nonpaired, two-tailed t-test (GraphPad InStat software).
Molecule `O=c1[nH]c2ccc(CCCN[C@H]3CC[C@H](c4ccccc4)CC3)cc2o1` [Example 1, 6-[3-(trans-4-Phenylcyclohexylamino)propyl]-3H-benzoxazol-2-one] has an IC50 of 0.053 µM.
Molecule `O=c1[nH]c2ccc(SCCN[C@H]3CC[C@H](c4ccccc4)CC3)cc2o1` [Example 4, 6-[2-(trans-4-Phenylcyclohexylamino)ethylsulfanyl]-3H-benzoxazol-2-one] has an IC50 of 0.091 µM.
Molecule `CN(CC(O)c1ccc2[nH]c(=O)[nH]c2c1)[C@H]1CC[C@H](c2ccccc2)CC1` (stereo partly drawn) [Example 5, 5-{1-Hydroxy-2-[methyl(trans-4-phenylcyclohexyl)amino]ethyl}-1,3-dihydrobenzimidazol-2-one] has an IC50 of 1.76 µM.
`CN(CCCc1ccc2[nH]c(=O)oc2c1)[C@H]1CC[C@H](c2ccc(F)cc2)CC1` [Example 6, 6-(3-{[trans-4-(4-Fluorophenyl)cyclohexyl]methylamino}propyl)-3H-benzoxazol-2-one] gave an IC50 of 0.73 µM.
For `CCN(CCCc1ccc2[nH]c(=O)oc2c1)[C@H]1CC[C@H](c2ccc(F)cc2)CC1` [Example 7, 6-(3-{[trans-4-(4-Fluorophenyl)cyclohexyl]ethylamino}propyl)-3H-benzoxazol-2-one], the IC50 was greater than 1 µM.

System: not given
Assay: not given
Conditions: not given
`O=c1[nH]c2ccc(CCCN[C@H]3CC[C@H](c4ccc(F)cc4)CC3)cc2o1` (as salt: HCl) [Example 2, 6-{3-[trans-4-(4-Fluorophenyl)cyclohexylamino]propyl}-3H-benzoxazol-2-one] gave a melting point of 295 to 303 °C.
For `CN(CCN[C@H]1CC[C@H](c2ccccc2)CC1)c1ccc2[nH]c(=O)oc2c1` (as salt: HCl) [Example 3, 6-{Methyl[2-(trans-4-phenylcyclohexylamino)ethyl]amino}-3H-benzoxazol-2-one], the melting point was 229 to 234 °C.
With `CN(CCCc1ccc2[nH]c(=O)oc2c1)[C@H]1CC[C@H](c2ccc(F)cc2)CC1` (as salt: HCl) [Example 6, 6-(3-{[trans-4-(4-Fluorophenyl)cyclohexyl]methylamino}propyl)-3H-benzoxazol-2-one] the melting point was 235 to 241 °C.
Work on `CCN(CCCc1ccc2[nH]c(=O)oc2c1)[C@H]1CC[C@H](c2ccc(F)cc2)CC1` (as salt: HCl) [Example 7, 6-(3-{[trans-4-(4-Fluorophenyl)cyclohexyl]ethylamino}propyl)-3H-benzoxazol-2-one] yielded a melting point of 99 to 109 °C.
Work on `O=c1[nH]c2ccc(OCCN[C@H]3CC[C@@H](c4ccccc4)CC3)cc2[nH]1` (as salt: HCl) [Example 8a, 5-[2-(cis-4-Phenylcyclohexylamino)ethoxy]-1,3-dihydrobenzimidazol-2-one] yielded a melting point of 232 to 237 °C.
With `O=c1[nH]c2ccc(OCCN[C@H]3CC[C@H](c4ccccc4)CC3)cc2[nH]1` (as salt: HCl) [Example 8b, 5-[2-(trans-4-Phenylcyclohexylamino)ethoxy]-1,3-dihydrobenzimidazol-2-one] the melting point was 315 to 320 °C.
For `O=c1[nH]c2ccc(CCCN[C@H]3CC[C@H](c4ccccc4)CC3)cc2o1` [Example 1, 6-[3-(trans-4-Phenylcyclohexylamino)propyl]-3H-benzoxazol-2-one], the melting point was 218 to 223 °C.
